Results reported in PMC7718273 (Scientific Reports, 2020).
Entries after “also recorded” stand apart in the source; their conditions may differ.

How the values were obtained:
CDAHFD NASH mouse model = assay: In vivo study using CDAHFD mice (NASH model); set-up: species or system C57BL/6J mice; details: positive control 3 mg/kg p.o. for 10 weeks
Procedure: C57BL/6J mice were fed normal chow diet (n = 5) or choline-deficient, L-amino acid-defined, high-fat diet (CDAHFD) for 4 weeks to induce NASH (n = 8–10/group). […] (a) Relative FAP activity was assessed by FRET-quench and serum FGF21 level at week 14. […] (c) Steatosis scores ranged from 0 to 3 (normal = 0, minimal = 1, moderate = 2, marked = 3) were determined. Hepatic steatosis and fibrosis (Picrosirius red stain) were analyzed in a blinded manner or by digital image analyzer. (d–e) Histological evaluations of liver tissue were performed in each group. Paraffin-embedded liver sections were stained with H&E (d) and Sirius red (e). Representative photographs of each group were presented. Images were obtained at 100x (Scale bar = 50 µm).
Male C57BL/6J mice (5 weeks of age) were fed with a CDAHFD consisting of 60% kcal fat and 0.1% methionine. […] For the CDAHFD model, compound treatments were started at the beginning of week 4 on the diet and continued until week 14. […] Liver tissue was then collected. All other measurements were done similarly as described above. Staining was performed using H&E and Picrosirius red as described previously. Areas of positive Sirius red were quantified by computer-based morphometric analysis.

diet-induced obese mice = tested on: diet-induced obese mice; set-up: method as in PMID 27689014; details: cited from earlier work
ob/ob mice = assay: Acute study using ob/ob mice: blood glucose and intact hFGF21; details: hFGF21 0.1 mg/kg i.p. alone
Procedure: Blood was collected at the indicated time points. (a) Nonfasting blood glucose levels were measured at the indicated time points. […] (c) Plasma intact hFGF21 levels were measured using ELISA kit at 1, 3, 6, and 9 h. All data are the means ± S.D. *P < 0.05, **P < 0.01 and *** P < 0.001 vs. vehicle group.
Blood was promptly collected by orbital bleeding that was allowed to clot, and supernatant was collected after centrifugation at 4 °C at 3000 rpm. Serum intact FGF21 concentrations were measured by intact hFGF21 ELISA (Alpco, Keewaydin Dr, Salem, NH, catalog no. 43-FGFHU-E01)[29].

[1] = animals administered with Talabostat alone

O=C(O)c1cc(F)c2nc(N3[C@@H]4CC[C@H]3C[C@@H](OCc3c(-c5ccccc5OC(F)(F)F)noc3C3CC3)C4)sc2c1 [LJN, Tropifexor, reference compound]
all parameters of the CDAHFD study (CDAHFD NASH mouse model): All parameters showed improvements

CC(C)[C@H](N)C(=O)N1CCC[C@H]1B(O)O [Talabostat]
adiposity (diet-induced obese mice; [1]): decreased
body weight (diet-induced obese mice; [1]): decreased
food consumption (diet-induced obese mice; [1]): decreased
endogenous intact FGF21 level (diet-induced obese mice; diet-induced obese mice): increased
insulin resistance / insulin sensitivity (diet-induced obese mice; diet-induced obese mice): improved insulin resistance; also recorded: improved insulin sensitivity

B1: hFGF21: full-length recombinant human FGF21 from Cell Science, given i.p. alone or with BR103354 (protein, UniProt Q9NSA1 29-209, looked up)
Fibroblast growth factor 21: HPIPDSSPLLQFGGQVRQRYLYTDDAQQTEAHLEIREDGTVGGAADQSPESLLQLKALKPGVIQILGVKTSRFLCQRPDGALYGSLHFDPEACSFRELLLEDGYNVYQSEAHGLPLHLPGNKSPHRDPAPRGPARFLPLPGLPPALPEPPGILAPQPPDVGSSDPLSMVGPSQGRSPSYAS
decrease of blood glucose AUC (ob/ob mice): about 20%
nonfasting blood glucose level, maximum average reduction to (ob/ob mice; 3 h, starting from 340 mg/dL): 230 mg/dL
